Blank lines part the entries; values can stand above or below the molecule they belong to.
Experiments:
GafASm (Smb_21587) [1] = target: T1, GafASm (Smb_21587) (Sinorhizobium meliloti, UniProt Q926G2); test: DSF thermal shift (ΔTm […] °C at […]); type: binding; conditions: read-out: ΔT m (°C) at 1.2 mM [ligand] / GafASm
T1 construct: gene SM_b21587

GafASm (Smb_21587) [2] = target: T1, GafASm (Smb_21587); test: DSF thermal shift (ΔTm […] °C at […]); type: binding; conditions: read-out: ΔT m (°C) at 1.2 mM [ligand] / GafASm; remark: listed apart in the source
GafASm (Smb_21587) [3] = target: T1, GafASm (Smb_21587); test: DSF thermal shift (ΔTm […] °C at […]); type: binding; conditions: read-out: ΔT m (°C) at 1.2 mM [ligand] / GafASm; remark: listed apart in the source
GafASm (Smb_21587) [4] = target: T1, GafASm (Smb_21587); test: DSF thermal shift (ΔTm […] °C at […]), weak; type: binding; conditions: read-out: ΔT m (°C) at 1.2 mM [ligand] / GafASm
GafASw (Shewana3_2073) [5] = test: ITC, intrinsic fluorescence ([…]), DSF; type: binding, Shewanella sp. ANA-3
GafASw (Shewana3_2073) [6] = test: crystal structure ([…] Å), ITC, intrinsic fluorescence, DSF; type: binding, Shewanella sp. ANA-3

T1 sequence (Q926G2 entry or part of it): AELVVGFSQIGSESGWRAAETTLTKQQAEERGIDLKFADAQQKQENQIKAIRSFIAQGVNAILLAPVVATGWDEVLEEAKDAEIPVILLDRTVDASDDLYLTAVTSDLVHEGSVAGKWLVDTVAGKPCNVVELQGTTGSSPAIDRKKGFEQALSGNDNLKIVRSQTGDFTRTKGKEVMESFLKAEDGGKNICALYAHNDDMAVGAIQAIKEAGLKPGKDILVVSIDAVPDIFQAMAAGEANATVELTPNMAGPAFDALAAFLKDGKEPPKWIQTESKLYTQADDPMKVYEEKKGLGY

ΔTm at 1200 µM (GafASm (Smb_21587) [1]): 11.6 ± 0.2 °C
SMILES: OC[C@H]1OC(O)[C@H](O)[C@@H](O)[C@H]1O (stereo partly drawn) [D-galactose]

ΔTm at 1200 µM (GafASm (Smb_21587) [2]): 11.8 ± 0.2 °C
SMILES: C[C@H]1OC(O)[C@H](O)[C@@H](O)[C@H]1O (stereo partly drawn) [D-fucose]

ΔTm at 1200 µM (GafASm (Smb_21587) [3]): 14.4 ± 0.2 °C
SMILES: OC1OC[C@H](O)[C@H](O)[C@H]1O (stereo partly drawn) [L-arabinose]

ΔTm at 1200 µM (GafASm (Smb_21587) [4]): 3.4 ± 0.2 °C
SMILES: OC[C@H]1OC(O)[C@@H](O)[C@@H](O)[C@H]1O (stereo partly drawn) [D-talose]

SMILES: OC[C@H]1OC(O)[C@H](O)[C@H](O)[C@@H]1O (stereo partly drawn) [D-allose]
Kd (GafASw (Shewana3_2073) [5]): 27.4 ± 4.32 µM

SMILES: OC[C@@H]1OC(O)[C@H](O)[C@H]1O (stereo partly drawn) [L-arabinofuranose]
Kd (GafASw (Shewana3_2073) [6]): 5.8 ± 0.51 µM
